Assay results taken from patent US20110130397A1, “PYRROLINONE COMPOUNDS AS INHIBITORS OF BACTERIAL PEPTIDYL TRNA HYDROLASE AND USES THEREOF” (priority 2006, published 2011).

melting point	SMILES
243 to 245 °C	Cc1ccc(C(=O)C2=C(O)C(=O)N(c3nc4cccnc4s3)C2c2ccc(O)c(C(=O)O)c2)o1 (stereo not drawn) [Compound 248]
220 to 221 °C	COC(=O)c1cccc(C2C(C(=O)c3ccc(C)o3)=C(O)C(=O)N2c2nc3cccnc3s2)c1 (stereo not drawn) [Compound 249]
227 to 228 °C	CCOc1ccc2nc(N3C(=O)C(O)=C(C(=O)c4ccc(C)o4)C3c3sc4ccccc4c3C)sc2c1 (stereo not drawn) [Compound 250]
230 to 231 °C	CCOc1ccc2nc(N3C(=O)C(O)=C(C(=O)c4ccc(C)o4)C3c3ccc4c(c3)OCO4)sc2c1 (stereo not drawn) [Compound 251]
260 to 261 °C	CCOc1ccc2nc(N3C(=O)C(O)=C(C(=O)c4ccc(C)o4)C3c3ccc4ccccc4n3)sc2c1 (stereo not drawn) [Compound 252]
114 to 115 °C	CCOc1ccc2nc(N3C(=O)C(OC(C)=O)=C(C(=O)c4ccc(C)o4)C3c3ccc(OCCOC(C)=O)cc3)sc2c1 (stereo not drawn) [Compound 253]
251 to 252 °C	CCOc1ccc2nc(N3C(=O)C(O)=C(C(=O)c4ccc(C)o4)C3c3ccc(O)c(C(=O)O)c3)sc2c1 (stereo not drawn) [Compound 254]
228 to 229 °C	CCOc1ccc2nc(N3C(=O)C(O)=C(C(=O)c4ccc(C)o4)C3c3cccc(C(=O)OC)c3)sc2c1 (stereo not drawn) [Compound 255]
187 to 188 °C	CCOc1ccc2nc(N3C(=O)C(O)=C(C(=O)c4ccc(C)o4)C3c3ccc(-c4cccc([N+](=O)[O-])c4)o3)sc2c1 (stereo not drawn) [Compound 256]
235 to 236 °C	CCOc1ccc2nc(N3C(=O)C(O)=C(C(=O)c4ccc(C)o4)C3c3cccs3)sc2c1 (stereo not drawn) [Compound 257]
291 to 292 °C	Cc1ccc(C(=O)C2=C(O)C(=O)N(c3nc(N4CCOCC4)c4nc[nH]c4n3)C2c2ccccc2)o1 (stereo not drawn) [Compound 283]
280 to 282 °C	Cc1ccc(C(=O)C2=C(O)C(=O)N(c3nc(N4CCOCC4)c4nc[nH]c4n3)C2c2cccc([N+](=O)[O-])c2)o1 (stereo not drawn) [Compound 284]
297 to 299 °C	Cc1ccc(C(=O)C2=C(O)C(=O)N(c3nc(N4CCOCC4)c4nc[nH]c4n3)C2c2ccccc2F)o1 (stereo not drawn) [Compound 285]
238 to 239 °C	CC(=O)C1=C(O)C(=O)N(c2nc3ccc(Cl)cc3s2)C1c1ccc(F)cc1 (stereo not drawn) [Compound 420]
239 to 240 °C	CC(C)(C)C(=O)C1=C(O)C(=O)N(c2nc3ccc(Cl)cc3s2)C1c1ccc(F)cc1 (stereo not drawn) [Compound 421]
236 to 237 °C	CCOC(=O)C1=C(O)C(=O)N(c2nc3ccc(Cl)cc3s2)C1c1ccc(F)cc1 (stereo not drawn) [Compound 422]
238 to 239 °C	CC(=O)C1=C(O)C(=O)N(c2nc3ccc(F)cc3s2)C1c1ccc(F)cc1 (stereo not drawn) [Compound 423]
232 to 233 °C	CC(C)(C)C(=O)C1=C(O)C(=O)N(c2nc3ccc(F)cc3s2)C1c1ccc(F)cc1 (stereo not drawn) [Compound 424]
218 to 219 °C	CCOC(=O)C1=C(O)C(=O)N(c2nc3ccc(F)cc3s2)C1c1ccc(F)cc1 (stereo not drawn) [Compound 425]
231 to 232 °C	CC(=O)C1=C(O)C(=O)N(c2nc3c(Cl)cccc3s2)C1c1ccc(F)cc1 (stereo not drawn) [Compound 426]
255 to 256 °C	CC(=O)C1=C(O)C(=O)N(c2nc3ccc(Cl)cc3s2)C1c1ccccc1F (stereo not drawn) [Compound 429]
235 to 236 °C	COC1=C(C(C)=O)C(c2ccccc2F)N(c2nc3ccc(Cl)cc3s2)C1=O (stereo not drawn) [Compound 430]
254 to 255 °C	CCOC1=C(C(=O)c2ccc(C)o2)C(c2ccc(O)cc2)N(c2nc3ccccc3n2C)C1=O (stereo not drawn) [Compound 431]
195 to 196 °C	Cc1ccc(C(=O)C2=C(O)C(=O)N(C3CCCCC3)C2c2ccccc2F)o1 (stereo not drawn) [Compound 432]
204 to 206 °C	Cc1ccc(C(=O)C2=C(O)C(=O)N(C3CCC(O)CC3)C2c2ccccc2F)o1 (stereo not drawn) [Compound 433]
74 to 75 °C	Cc1ccc(C(=O)C2=C(O)C(=O)N(C(CO)CO)C2c2ccccc2F)o1 (stereo not drawn) [Compound 434]
309 to 310 °C	O=C(C1=C(O)C(=O)N(c2nc3ccc(Cl)cc3s2)C1c1ccccc1F)c1nccs1 (stereo not drawn) [Compound 435]
